{"source": "paper PMC5702336", "about": "“Critical Role of Hepatic Cyp450s in the Testis-Specific Toxicity of (5R)-5-Hydroxytriptolide in C57BL/6 Mice” (Frontiers in Pharmacology, 2017)", "key": {"rat liver microsomes": {"tested_on": "rat liver microsomes", "assay": "Chemical inhibition study of LLDT-8 metabolism with selective CYP inhibitors", "assay_type": "in vitro ADME", "details": "LLDT-8 2 μM, 0.5 and 1 h, residual LLDT-8 by LC-MS/MS", "experimental": "The chemical inhibition assay was performed as previously reported (Li et al., [2008]). A 400 μl typical incubation mixture contained 0.2 mg rat liver microsomes (20 mg/ml, Cat. No: LM-DS-02M, Lot. No: BDVH, Research Institute for liver Diseases, Shanghai, China), 2 μM LLDT-8, 5 mM MgCl2, 1 mM NADPH (Cat. No: 10107824001, Lot. No: 20595625, Sigma, USA) and selective inhibitors of each CYP isoforms in a 100 mM phosphate buffer (pH 7.4). The inhibitors used were as follows: quercetin (2 μM) for CYP1A and CYP2C8, 8-methoxypsoralen (2.5 μM) for CYP2A6, sulfaphenazole (10 μM) for CYP2C9, omeprazole (20 μM) for CYP2C19, quinidine (10 μM) for CYP2D6, clomethiazole (50 μM) for CYP2E1, ketoconazole (1 μM) for CYP3A4 and aminobenzotriazole (50 μM, a broad CYP inhibitor) (Tsyrlov et al., [1994]; Li et al., [2008]). After incubation for 0, 0.5, and 1 h, 100 μl supernatant was collected and quenched by the addition of 100 μl of ice-cold acetonitrile. The mixtures were then centrifuged for 10 min at 20,000 × g. An aliquot of the supernatant was analyzed by LC-MS/MS to monitor the residual LLDT-8 without extraction."}, "mice testes": {"tested_on": "mice testes", "assay": "Testicular toxicity comparison between triptolide and LLDT-8 (15 days by gavage, H&E)", "assay_type": "in vivo, mouse", "details": "0.25 mg/kg and 0.5 mg/kg by gavage for 15 days", "experimental": "For toxicity experiments, mice (n = 3 for each group) were treated with tritpilide (0.125, 0.25, 0.5mg/kg), LLDT-8 (0.125, 0.25, 0.5mg/kg) consecutively administered by gavage for 15 days. The control group received saline. Mice were sacrificed on the 15th day post-administration and blood, liver, kidney, spleen, testis and epididymis were collected. The main lobe of liver, kidney, spleen and epididymis were fixed in 10% neutral buffered formalin for histological examination, the left testicle was fixed in Davidson’s buffer for 16 hours followed by 10% neutral buffered formalin. Tissue sections were stained with hematoxylin and eosin (H&E). Remaining tissues were stored at -80 °C for RNA and protein extraction.\nSupplementary Figure S1 Comparison of testicular toxicity between triptolide(TL) and LLDT-8. Mice (n=3) were weighted before sacrificed on the 15th day post-administration of triptolide, LLDT-8 or saline. The testes were collected and weighted. […] (G-H) Comparison of epididymis weight between triptolide and LLDT-8. Significant difference was determined by one-way Anova, mean ± SD. * p<0.05, *** p<0.001 vs Saline group. # p<0.05, ## p<0.01, ### p<0.001 vs T8 group at the same dosage."}}, "note": "“Also recorded” adds a separate entry of the source.", "data": [{"smiles": "Nn1nnc2ccccc21", "note": "[aminobenzotriazole]", "values": [{"measurement": "effect of CYP inhibitor on the metabolism of LLDT-8", "setting": "rat liver microsomes", "value": "inhibited"}]}, {"smiles": "Cc1ncsc1CCCl", "note": "[clomethiazole]", "values": [{"measurement": "effect of CYP inhibitor on the metabolism of LLDT-8", "setting": "rat liver microsomes", "value": "inhibited; also recorded: seems to completely inhibit"}]}, {"smiles": "CC(=O)N1CCN(c2ccc(OCC3COC(Cn4ccnc4)(c4ccc(Cl)cc4Cl)O3)cc2)CC1", "note": "(stereo not drawn) [ketoconazole]", "values": [{"measurement": "effect of CYP inhibitor on the metabolism of LLDT-8", "setting": "rat liver microsomes", "value": "inhibited"}]}, {"smiles": "COc1ccc2[nH]c([S+]([O-])Cc3ncc(C)c(OC)c3C)nc2c1", "note": "(stereo not drawn) [omeprazole]", "values": [{"measurement": "effect of CYP inhibitor on the metabolism of LLDT-8", "setting": "rat liver microsomes", "value": "inhibited"}]}, {"smiles": "C=C[C@H]1C[N@@]2CC[C@H]1C[C@@H]2[C@@H](O)c1ccnc2ccc(OC)cc12", "note": "[quinidine]", "values": [{"measurement": "effect of CYP inhibitor on the metabolism of LLDT-8", "setting": "rat liver microsomes", "value": "inhibited"}]}, {"smiles": "CC(C)[C@]12O[C@H]1[C@@H]1O[C@]13[C@]1(O[C@H]1C[C@H]1C4=C(CC[C@@]13C)C(=O)OC4)[C@@H]2O", "note": "[triptolide]", "values": [{"measurement": "testis morphology (H&E)", "setting": "mice testes", "value": "induced severe testicular injury"}]}]}
